In brackets after ≈: the same amount, converted by molar mass. Where only a bound is given, the exact number is not on record here.

Data on 21 compounds can be found in ChEMBL document CHEMBL1909602, “Design and synthesis of novel triazole antifungal derivatives by structure-based bioisosterism” (Eur J Med Chem, 2011).

Data set [1] deals with Cryptococcus neoformans. As to the kind of experiment: Antifungal activity against Cryptococcus neoformans 32609 after 72 hrs by serial dilution method. It counts as functional. To be noted: Cryptococcus neoformans, 32609, 72 h.
Data set [2] relates to Aspergillus fumigatus. Description: Antifungal activity against Aspergillus fumigatus 7544 after 7 days by serial dilution method. The following applies: Aspergillus fumigatus, 7544, 168 h. In kind it is functional.
The subject of data set [3] is Pichia kudriavzevii. As to the kind of experiment: Antifungal activity against Candida krusei ATCC 6258 after 24 hrs by serial dilution method. In kind it is functional. To be noted: ATCC 6258, 24 h.
Data set [4] in a line: Hydrophobicity, Log P of the compound. In kind it is physicochemical. The following applies: octanol/water.
Data set [5] concerns Candida parapsilosis. As to the kind of experiment: Antifungal activity against Candida parapsilosis ATCC 22019 after 24 hrs by serial dilution method. It counts as functional. To be noted: Lodderomyces parapsilosis, ATCC 22019, 24 h.
For data set [6], the system named is Candida tropicalis. As to the kind of experiment: Antifungal activity against Candida tropicalis 087 after 24 hrs by serial dilution method. It counts as functional. To be noted: Candida tropicalis, 087, 24 h.
Data set [7] relates to Candida albicans. As to the kind of experiment: Antifungal activity against Candida albicans Y0109 after 24 hrs by serial dilution method. In kind it is functional. The following applies: Y0109, 24 h.

In the case of `O=c1n(-c2ccccc2F)cnn1CCCN1CCN(CC(O)(Cn2cncn2)c2ccc(F)cc2F)CC1` (racemic), the MIC80 – broadly, the lowest concentration that inhibits either 80% of growth or 80% of the strains tested, depending on the study – in data set [1] was above 64 µg/mL; in data set [2] it was above 64 µg/mL; in data set [3], above 64 µg/mL; in data set [5] it was 1 µg/mL (≈ 1.84 µM); in data set [6], 1 µg/mL (≈ 1.84 µM); in data set [7], 0.25 µg/mL (≈ 0.461 µM). Further, the logP (as a rule, a log measure of how a compound divides between an organic and an aqueous phase) in data set [4] was found to be 2.02.
Consider `Cc1ccc(-n2cnn(CCCN3CCN(CC(O)(Cn4cncn4)c4ccc(F)cc4F)CC3)c2=O)cc1` (racemic), for which the MIC80 in data set [1] is 8 µg/mL (≈ 14.9 µM); in data set [2] it was above 64 µg/mL; in data set [3], 1 µg/mL (≈ 1.86 µM); in data set [5], 1 µg/mL (≈ 1.86 µM); in data set [6] it was 0.25 µg/mL (≈ 0.464 µM); in data set [7], 0.25 µg/mL (≈ 0.464 µM). This compound also displayed a logP in data set [4] of 2.28.
With `Cc1cccc(-n2cnn(CCCN3CCN(CC(O)(Cn4cncn4)c4ccc(F)cc4F)CC3)c2=O)c1` (racemic), the MIC80 in data set [1] was determined as 8 µg/mL (≈ 14.9 µM); in data set [2], 8 µg/mL (≈ 14.9 µM); in data set [3], 1 µg/mL (≈ 1.86 µM); in data set [5], 1 µg/mL (≈ 1.86 µM); in data set [6] it was 0.25 µg/mL (≈ 0.464 µM); in data set [7] it was 0.25 µg/mL (≈ 0.464 µM). The compound further came in with a log partition coefficient (logP) in data set [4] of 2.28.
Consider `O=c1n(-c2ccccc2)cnn1CCCN1CCN(CC(O)(Cn2cncn2)c2ccc(F)cc2F)CC1` (racemic), for which the MIC80 in data set [1] was 8 µg/mL (≈ 15.3 µM); in data set [2], above 64 µg/mL; in data set [3] it was 1 µg/mL (≈ 1.91 µM); in data set [5] it was 1 µg/mL (≈ 1.91 µM); in data set [6], 1 µg/mL (≈ 1.91 µM); in data set [7] it was 0.25 µg/mL (≈ 0.477 µM). The logP in data set [4] was determined as 1.92.
Turning to `CC(C)(C)c1ccc(-n2cnn(CCCN3CCN(CC(O)(Cn4cncn4)c4ccc(F)cc4F)CC3)c2=O)cc1` (racemic), the MIC80 came out at 1 µg/mL (≈ 1.72 µM) in data set [1]; 1 µg/mL (≈ 1.72 µM) in data set [2]; 0.25 µg/mL (≈ 0.431 µM) in data set [3]; 0.25 µg/mL (≈ 0.431 µM) in data set [5]; 0.25 µg/mL (≈ 0.431 µM) in data set [6]; 0.25 µg/mL (≈ 0.431 µM) in data set [7]. This compound also showed a log partition coefficient (logP) in data set [4] of 3.59.
`Cc1ccc(-n2cnn(CCCN3CCN(CC(O)(Cn4cncn4)c4ccc(F)cc4F)CC3)c2=O)c(C)c1` (racemic): the MIC80 was 8 µg/mL (≈ 14.5 µM) in data set [1]; above 64 µg/mL in data set [2]; 1 µg/mL (≈ 1.81 µM) in data set [3]; 1 µg/mL (≈ 1.81 µM) in data set [5]; 1 µg/mL (≈ 1.81 µM) in data set [6]; 1 µg/mL (≈ 1.81 µM) in data set [7]. The logP in data set [4] came to 2.65.
Regarding `Cc1ccc(-n2cnn(CCCN3CCN(CC(O)(Cn4cncn4)c4ccc(F)cc4F)CC3)c2=O)cc1C` (racemic), the MIC80 in data set [1] turned out to be 4 µg/mL (≈ 7.24 µM); in data set [2] it was 8 µg/mL (≈ 14.5 µM); in data set [3], 1 µg/mL (≈ 1.81 µM); in data set [5], 0.25 µg/mL (≈ 0.452 µM); in data set [6], 0.25 µg/mL (≈ 0.452 µM); in data set [7], 0.25 µg/mL (≈ 0.452 µM). The compound further gave a logP in data set [4] of 2.65.
With `Cc1cc(C)cc(-n2cnn(CCCN3CCN(CC(O)(Cn4cncn4)c4ccc(F)cc4F)CC3)c2=O)c1` (racemic), the MIC80 in data set [1] came to 4 µg/mL (≈ 7.24 µM); in data set [2], 8 µg/mL (≈ 14.5 µM); in data set [3], 1 µg/mL (≈ 1.81 µM); in data set [5], 1 µg/mL (≈ 1.81 µM); in data set [6], 0.25 µg/mL (≈ 0.452 µM); in data set [7] it was 0.25 µg/mL (≈ 0.452 µM). In data set [4], this compound returned a logP of 2.65.
Turning to `O=c1n(-c2cccc(Cl)c2)cnn1CCCN1CCN(CC(O)(Cn2cncn2)c2ccc(F)cc2F)CC1` (racemic), the MIC80 is 4 µg/mL (≈ 7.16 µM) in data set [1]; 16 µg/mL (≈ 28.6 µM) in data set [2]; above 64 µg/mL in data set [3]; 0.25 µg/mL (≈ 0.447 µM) in data set [5]; 0.0625 µg/mL (≈ 0.112 µM) in data set [6]; 0.0625 µg/mL (≈ 0.112 µM) in data set [7]. Moreover, the logP in data set [4] was 2.54.
On to `O=c1n(-c2ccc(Cl)cc2)cnn1CCCN1CCN(CC(O)(Cn2cncn2)c2ccc(F)cc2F)CC1` (racemic), for which the MIC80 in data set [1] was determined as 4 µg/mL (≈ 7.16 µM); in data set [2] it was 8 µg/mL (≈ 14.3 µM); in data set [3] it was 0.25 µg/mL (≈ 0.447 µM); in data set [5] it was 0.25 µg/mL (≈ 0.447 µM); in data set [6], 0.25 µg/mL (≈ 0.447 µM); in data set [7], 0.0625 µg/mL (≈ 0.112 µM). In data set [4], this compound came in with a logP of 2.54.
With `O=c1n(-c2ccc(Cl)c(Cl)c2)cnn1CCCN1CCN(CC(O)(Cn2cncn2)c2ccc(F)cc2F)CC1` (racemic), the MIC80 in data set [1] was 1 µg/mL (≈ 1.69 µM); in data set [2], 4 µg/mL (≈ 6.74 µM); in data set [3] it was 0.25 µg/mL (≈ 0.421 µM); in data set [5], 0.25 µg/mL (≈ 0.421 µM); in data set [6], 0.0625 µg/mL (≈ 0.105 µM); in data set [7], 0.0625 µg/mL (≈ 0.105 µM). This compound displayed a logP in data set [4] of 3.17.
Turning to `O=c1n(-c2ccc(Br)cc2)cnn1CCCN1CCN(CC(O)(Cn2cncn2)c2ccc(F)cc2F)CC1` (racemic), the MIC80 in data set [1] was determined as 4 µg/mL (≈ 6.63 µM); in data set [2], 8 µg/mL (≈ 13.3 µM); in data set [3] it was 1 µg/mL (≈ 1.66 µM); in data set [5], 0.25 µg/mL (≈ 0.414 µM); in data set [6], 0.25 µg/mL (≈ 0.414 µM); in data set [7], 0.25 µg/mL (≈ 0.414 µM). In data set [4], this compound showed a logP of 2.61.
Consider `O=c1n(-c2ccc(F)cc2)cnn1CCCN1CCN(CC(O)(Cn2cncn2)c2ccc(F)cc2F)CC1` (racemic), for which the MIC80 was above 64 µg/mL in data set [1]; above 64 µg/mL in data set [2]; above 64 µg/mL in data set [3]; 1 µg/mL (≈ 1.84 µM) in data set [5]; 0.25 µg/mL (≈ 0.461 µM) in data set [6]; 0.25 µg/mL (≈ 0.461 µM) in data set [7]. The same compound showed a logP in data set [4] of 2.02.
With `O=c1n(-c2ccc(I)cc2)cnn1CCCN1CCN(CC(O)(Cn2cncn2)c2ccc(F)cc2F)CC1` (racemic), the MIC80 in data set [1] turned out to be 4 µg/mL (≈ 6.15 µM); in data set [2] it was 8 µg/mL (≈ 12.3 µM); in data set [3], 0.25 µg/mL (≈ 0.384 µM); in data set [5], 0.25 µg/mL (≈ 0.384 µM); in data set [6], 0.25 µg/mL (≈ 0.384 µM); in data set [7], 0.25 µg/mL (≈ 0.384 µM). The compound also gave a logP in data set [4] of 2.57.
As to `CCOc1ccc(-n2cnn(CCCN3CCN(CC(O)(Cn4cncn4)c4ccc(F)cc4F)CC3)c2=O)cc1` (racemic), the MIC80 is 8 µg/mL (≈ 14.1 µM) in data set [1]; above 64 µg/mL in data set [2]; 1 µg/mL (≈ 1.76 µM) in data set [3]; 1 µg/mL (≈ 1.76 µM) in data set [5]; 1 µg/mL (≈ 1.76 µM) in data set [6]; 0.25 µg/mL (≈ 0.44 µM) in data set [7]. The compound further came in with a logP in data set [4] of 2.25.
As for `Cc1ccc(-n2cnn(CCCN3CCN(CC(O)(Cn4cncn4)c4ccc(F)cc4F)CC3)c2=O)cc1Cl` (racemic), the MIC80 in data set [1] worked out at 1 µg/mL (≈ 1.75 µM); in data set [2], 4 µg/mL (≈ 6.98 µM); in data set [3], 0.25 µg/mL (≈ 0.436 µM); in data set [5], 0.25 µg/mL (≈ 0.436 µM); in data set [6], 0.25 µg/mL (≈ 0.436 µM); in data set [7], 0.0625 µg/mL (≈ 0.109 µM). The compound also yielded a log partition coefficient (logP) in data set [4] of 2.91.
On to `O=c1n(-c2ccc(F)c(Cl)c2)cnn1CCCN1CCN(CC(O)(Cn2cncn2)c2ccc(F)cc2F)CC1` (racemic), for which the MIC80 in data set [1] came to 1 µg/mL (≈ 1.73 µM); in data set [2] it was 4 µg/mL (≈ 6.93 µM); in data set [3], 0.25 µg/mL (≈ 0.433 µM); in data set [5], 0.25 µg/mL (≈ 0.433 µM); in data set [6], 0.0625 µg/mL (≈ 0.108 µM); in data set [7] it was 0.0625 µg/mL (≈ 0.108 µM). In data set [4], this compound displayed a logP of 2.65.
For the compound `Cc1ccc(C)c(-n2cnn(CCCN3CCN(CC(O)(Cn4cncn4)c4ccc(F)cc4F)CC3)c2=O)c1` (racemic), the MIC80 in data set [1] is 8 µg/mL (≈ 14.5 µM); in data set [2], above 64 µg/mL; in data set [3], 1 µg/mL (≈ 1.81 µM); in data set [5], 1 µg/mL (≈ 1.81 µM); in data set [6] it was 0.25 µg/mL (≈ 0.452 µM); in data set [7], 0.25 µg/mL (≈ 0.452 µM). Also, the log partition coefficient (logP) in data set [4] stood at 2.65.
Turning to `Cc1cccc(C)c1-n1cnn(CCCN2CCN(CC(O)(Cn3cncn3)c3ccc(F)cc3F)CC2)c1=O` (racemic), the MIC80 is above 64 µg/mL in data set [1]; above 64 µg/mL in data set [2]; 1 µg/mL (≈ 1.81 µM) in data set [3]; 4 µg/mL (≈ 7.24 µM) in data set [5]; 0.25 µg/mL (≈ 0.452 µM) in data set [6]; 1 µg/mL (≈ 1.81 µM) in data set [7]. In data set [4], this compound had a logP of 2.65.
For `Cc1ccc(-n2cnn(CCCN3CCN(CC(O)(Cn4cncn4)c4ccc(F)cc4F)CC3)c2=O)cc1[N+](=O)[O-]` (racemic), the MIC80 in data set [1] is 16 µg/mL (≈ 27.4 µM); in data set [2], above 64 µg/mL; in data set [3], above 64 µg/mL; in data set [5] it was 1 µg/mL (≈ 1.71 µM); in data set [6] it was 0.25 µg/mL (≈ 0.428 µM); in data set [7], 0.25 µg/mL (≈ 0.428 µM). The compound further gave a logP in data set [4] of 2.11.
In the case of `OC(Cn1cncn1)(Cn1cncn1)c1ccc(F)cc1F` [FLUCONAZOLE], the MIC80 in data set [1] was 16 µg/mL (≈ 52.2 µM); in data set [2], above 64 µg/mL; in data set [3] it was 0.25 µg/mL (≈ 0.816 µM); in data set [5], 1 µg/mL (≈ 3.27 µM); in data set [6] it was 0.0625 µg/mL (≈ 0.204 µM); in data set [7] it was 0.25 µg/mL (≈ 0.816 µM).
